From patent US8048899B2, “Compounds which selectively modulate the CB2 receptor” (Boehringer Ingelheim International GmbH, priority 2008, dated 2011)
Like-named read-outs stand apart in the source and are kept apart here.

Columns and labels:
human CB2R = molecular target: T1, human CB2R (Homo sapiens, UniProt P34972); test: CB2R mediated modulation of cAMP synthesis; assay type: cell-based
T1 construct: host or cells: CHO cells
Description: B. CB2R Mediated Modulation of cAMP Synthesis:
Compounds of the invention are evaluated for their CB2 agonist or inverse agonistic activity in accordance with the following experimental method.
(§1) CHO cells expressing human CB2R (Euroscreen) are plated at a density of 5000 cells per well in 384 well plates and incubated overnight at 37° C. After removing the media, the cells are treated with test compounds diluted in stimulation buffer containing 1 mM IBMX, 0.25% BSA and 10 uM Forskolin. The assay is incubated for 30 minutes at 37° C. Cells are lysed and the cAMP concentration is measured using DiscoverX-XS cAMP kit, following the manufacturer's protocol. In this setting, agonists will decrease forskolin induced production of cAMP while inverse agonists will further increase forskolin induced production of cAMP. EC50 of agonists are calculated as follows. The maximal amount of cAMP produced by forskolin compared to the level of cAMP inhibited by 1 uM CP55940 is defined as 100%. […] Data is analyzed using a four-parameter logistic model. (Model 205 of XLfit 4.0).

human CB1R = molecular target: T2, human CB1R (Homo sapiens, UniProt P21554); test: CB1R mediated modulation of cAMP synthesis; assay type: cell-based
T2 construct: host or cells: CHO cells
T2 sequence (P21554 whole entry): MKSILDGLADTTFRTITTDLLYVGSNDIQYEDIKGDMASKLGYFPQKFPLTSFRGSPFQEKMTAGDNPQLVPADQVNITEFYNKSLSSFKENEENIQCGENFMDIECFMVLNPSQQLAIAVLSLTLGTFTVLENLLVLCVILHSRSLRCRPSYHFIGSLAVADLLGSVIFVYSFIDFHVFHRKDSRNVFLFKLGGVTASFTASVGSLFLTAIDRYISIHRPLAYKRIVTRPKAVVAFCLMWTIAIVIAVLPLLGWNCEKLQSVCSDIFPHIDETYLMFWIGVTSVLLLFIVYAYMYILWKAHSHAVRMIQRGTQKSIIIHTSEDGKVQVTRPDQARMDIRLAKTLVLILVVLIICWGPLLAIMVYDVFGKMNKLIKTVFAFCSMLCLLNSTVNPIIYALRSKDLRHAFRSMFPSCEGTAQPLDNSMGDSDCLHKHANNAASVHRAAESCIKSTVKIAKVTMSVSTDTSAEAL
Description: C. CB1R Mediated Modulation of cAMP Synthesis:
Compounds of the invention are evaluated for their CB1 agonist or inverse agonistic activity in accordance with the following experimental method.
as §1, with “CB1R” for “CB2R”

[1] = CHO cells expressing human CB2R, inhibition of forskolin-stimulated cAMP synthesis, read-out: CB2 EC50
[2] = CHO cells expressing human CB1R, inhibition of forskolin-stimulated cAMP synthesis, read-out: CB1 EC50

T1 sequence (P34972 whole entry): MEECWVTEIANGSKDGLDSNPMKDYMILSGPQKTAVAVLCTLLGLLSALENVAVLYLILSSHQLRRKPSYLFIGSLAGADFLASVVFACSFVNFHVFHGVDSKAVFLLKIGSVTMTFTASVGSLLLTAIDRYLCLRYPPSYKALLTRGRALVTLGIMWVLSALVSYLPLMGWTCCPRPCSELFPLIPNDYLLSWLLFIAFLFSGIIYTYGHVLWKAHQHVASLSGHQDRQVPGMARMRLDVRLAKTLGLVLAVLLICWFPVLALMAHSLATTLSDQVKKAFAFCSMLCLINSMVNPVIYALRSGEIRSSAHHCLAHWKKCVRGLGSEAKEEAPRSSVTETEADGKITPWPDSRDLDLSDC

SMILES | EC50 (human CB2R) | EC50 (human CB1R) | EC50 (human CB2R; [1]) | EC50 (human CB1R; [2])
CC(C)(CO)c1cc(NC(=O)C(C)(C)S(=O)(=O)C2CCOCC2)on1 | 11 nM | > 50000 nM | – | –
CC(C)(CO)c1cc(NC(=O)C(C)(C)S(=O)(=O)N2CCC2)on1 | – | – | 288 nM | > 20000 nM
COc1ccc(-c2nnc(NC(=O)C(C)(C)S(=O)(=O)CC3CCOCC3)[nH]2)cc1 | 9.5 nM | > 50000 nM | – | –
CC(C)(CO)c1cc(NC(=O)C(C)(C)S(=O)(=O)C2CCCC2)on1 | 75 nM | > 20000 nM | – | –
CC(C)(CO)c1cc(NC(=O)C(C)(C)S(=O)(=O)CC2CCC2)on1 | 82 nM | > 20000 nM | – | –
COc1ccc(-c2nnc(NC(=O)C(C)(C)S(=O)(=O)C3CCOCC3)[nH]2)cc1 | 0.66 nM | > 20000 nM | – | –
CC(C)(CO)c1cc(NC(=O)C(C)(C)S(=O)(=O)c2ccc(F)cc2)on1 | 30 nM | > 20000 nM | – | –
CC(C)(C(=O)Nc1nnc(-c2ccc(O)cc2)[nH]1)S(=O)(=O)CC1CCOCC1 | 100 nM | > 20000 nM | – | –
CC(C)(C(=O)Nc1nnc(-c2ccc(O)cc2)[nH]1)S(=O)(=O)C1CCOCC1 | 5 nM | > 20000 nM | – | –
COCC(C)(C)c1cc(NC(=O)C(C)(C)S(=O)(=O)CC2CCOCC2)on1 | 29 nM | > 20000 nM | – | –
COc1ccc(-c2nnc(NC(=O)C(C)(C)S(=O)(=O)C3CCCC3)[nH]2)cc1 | 14 nM | > 20000 nM | – | –
COc1ccc(-c2nnc(NC(=O)C(C)(C)S(=O)(=O)CC(C)C)[nH]2)cc1 | 69 nM | > 20000 nM | – | –
COc1ccc(-c2nnc(NC(=O)C(C)(C)S(=O)(=O)C3CCN(S(C)(=O)=O)CC3)[nH]2)cc1 | 16 nM | 29400 nM | – | –
COc1ccc(-c2nnc(NC(=O)C(C)(C)S(=O)(=O)c3ccc(S(C)(=O)=O)cc3F)[nH]2)cc1 | 2.1 nM | > 20000 nM | – | –
COc1ccc(-c2nnc(NC(=O)C(C)(C)S(=O)(=O)N3CCC3)[nH]2)cc1 | 32 nM | > 20000 nM | – | –
COc1ccc(-c2nnc(NC(=O)C(C)(C)S(=O)(=O)N3CC[C@@H](F)C3)[nH]2)cc1 | 33 nM | > 50000 nM | – | –
COCC(C)(C)c1cc(NC(=O)C(C)(C)S(=O)(=O)C2CCOCC2)on1 | 3.1 nM | > 20000 nM | – | –
CC(C)(CO)c1cc(NC(=O)C(C)(C)S(=O)(=O)C2CCN(S(C)(=O)=O)CC2)on1 | 14 nM | > 50000 nM | – | –
CC(C)(CO)c1cc(NC(=O)C(C)(C)S(=O)(=O)CC2CCC(=O)CC2)on1 | 68 nM | > 50000 nM | – | –
CC(C)(CO)c1cc(NC(=O)C(C)(C)S(=O)(=O)C2CCOCC2)no1 | 33 nM | > 50000 nM | – | –
CC(C)(CO)c1cc(NC(=O)C(C)(C)S(=O)(=O)CCCC(F)(F)F)no1 | 25 nM | > 20000 nM | – | –
CC(C)(CO)c1nnc(NC(=O)C(C)(C)S(=O)(=O)C2CCOCC2)s1 | 48 nM | > 50000 nM | – | –
COc1ccc(-c2nnc(NC(=O)C(C)(C)S(=O)(=O)C[C@H]3CCOC3)[nH]2)cc1 | 90 nM | > 50000 nM | – | –

SMILES | EC50 (human CB2R) | EC50 (human CB1R) | EC50 (human CB2R; [1]) | EC50 (human CB1R; [2])
COc1ccc(-c2nnc(NC(=O)C(C)(C)S(=O)(=O)C[C@@H]3CCOC3)[nH]2)cc1 | 240 nM | > 50000 nM | – | –
COCC(C)(C)c1cc(NC(=O)C(C)(C)S(=O)(=O)C2CCOCC2)no1 | 3.5 nM | > 50000 nM | – | –
CC(C)(C(=O)Nc1cc(C2(CO)CCC2)no1)S(=O)(=O)C1CCOCC1 | 77 nM | > 50000 nM | – | –
CC(C)(C(=O)Nc1cc(C2(CO)CCCC2)no1)S(=O)(=O)C1CCOCC1 | 15 nM | > 50000 nM | – | –
CC(C)(C(=O)Nc1cc(C2(CO)CCCC2)no1)S(=O)(=O)CC1CCOCC1 | 206 nM | > 50000 nM | – | –
CCOCC(C)(C)c1cc(NC(=O)C(C)(C)S(=O)(=O)C2CCOCC2)on1 | 3.6 nM | > 20000 nM | – | –
CC(C)(C(=O)Nc1cc(C2(CO)CCCCC2)no1)S(=O)(=O)C1CCOCC1 | 38 nM | > 20000 nM | – | –
COc1ccc(-c2nnc(NC(=O)C(C)(C)S(=O)(=O)CC3CC3)[nH]2)cc1 | 32 nM | > 50000 nM | – | –
CC(C)(C(=O)Nc1nnc(-c2ccc(O)cc2)[nH]1)S(=O)(=O)c1ccc(F)cc1 | 4 nM | > 20000 nM | – | –
COCC(C)(C)c1cc(NC(=O)C(C)(C)S(=O)(=O)C2CCCC2)on1 | 15 nM | > 20000 nM | – | –
CC(C)(C(=O)Nc1cc(C2(CO)CCCC2)no1)S(=O)(=O)CC1CCC1 | 25 nM | > 20000 nM | – | –
CC(C)(C(=O)Nc1cc(C2(CO)CCCCC2)no1)S(=O)(=O)CC1CCC1 | 67 nM | > 20000 nM | – | –
CC(C)(C(=O)Nc1cc(C2(CO)CCC2)no1)S(=O)(=O)CC1CCC1 | 74 nM | > 50000 nM | – | –
CC(C)CCS(=O)(=O)C(C)(C)C(=O)Nc1cc(C2(CO)CC2)no1 | 14 nM | > 20000 nM | – | –
CC[C@H](C)S(=O)(=O)C(C)(C)C(=O)Nc1cc(C2(CO)CCCC2)no1 | 82 nM | > 20000 nM | – | –
CC(C)(CO)c1cc(NC(=O)C(C)(C)S(=O)(=O)CCC(F)(F)F)on1 | – | – | 105 nM | > 50000 nM
CC(C)(C(=O)Nc1cc(C2(CO)CCCC2)no1)S(=O)(=O)C1CCCC1 | 45 nM | > 20000 nM | – | –
CCOc1ccc(-c2n[nH]c(NC(=O)C(C)(C)S(=O)(=O)CC3CC3)n2)cc1 | – | – | 488 nM | > 50000 nM
COCC(C)(C)c1cc(NC(=O)C(C)(C)S(=O)(=O)CC2CC2)no1 | – | – | 121 nM | > 50000 nM
CC(C)(CO)c1cc(NC(=O)C(C)(C)S(=O)(=O)c2ccc(F)cc2)no1 | 45 nM | > 50000 nM | – | –
CC(C)(CO)c1cc(NC(=O)C(C)(C)S(=O)(=O)CC2CCC2)no1 | 96 nM | > 50000 nM | – | –
CC(C)(CO)c1cc(NC(=O)C(C)(C)S(=O)(=O)C2CCCC2)no1 | – | – | 222 nM | ≥ 50000 nM
CC(C)(CO)c1cc(NC(=O)C(C)(C)S(=O)(=O)c2cccc(F)c2F)no1 | 69 nM | > 50000 nM | – | –

SMILES | EC50 (human CB2R) | EC50 (human CB1R) | EC50 (human CB2R; [1]) | EC50 (human CB1R; [2])
COc1ccccc1-c1n[nH]c(NC(=O)C(C)(C)S(=O)(=O)CC2CC2)n1 | 15 nM | > 20000 nM | – | –
CC(C)(C(=O)Nc1nc(-c2ccc(O)cc2)n[nH]1)S(=O)(=O)C1CCCC1 | 36 nM | > 50000 nM | – | –
CC(C)(C(=O)Nc1nc(-c2ccc(O)cc2)n[nH]1)S(=O)(=O)CC1CCC1 | 22 nM | > 50000 nM | – | –
COc1ccc(-c2nnc(NC(=O)C(C)(C)S(=O)(=O)CC3CC3)[nH]2)c(F)c1 | 34 nM | > 50000 nM | – | –
COc1ccc(-c2nnc(NC(=O)C(C)(C)S(=O)(=O)C3CCOCC3)[nH]2)c(F)c1 | 13 nM | > 50000 nM | – | –
CC(C)(C(=O)Nc1nc(-c2ccccc2O)n[nH]1)S(=O)(=O)C1CCOCC1 | 30 nM | > 20000 nM | – | –
CC[C@@H](C)S(=O)(=O)C(C)(C)C(=O)Nc1nnc(-c2ccc(OC)cc2)[nH]1 | 83 nM | > 50000 nM | – | –
CC[C@H](C)S(=O)(=O)C(C)(C)C(=O)Nc1nnc(-c2ccc(OC)cc2)[nH]1 | 47 nM | > 50000 nM | – | –
CC(C)(C(=O)Nc1nnc(-c2ccc(O)cc2F)[nH]1)S(=O)(=O)C1CCOCC1 | 7.7 nM | > 50000 nM | – | –
CC(C)(C(=O)Nc1nnc(-c2ccc(O)cc2)[nH]1)S(=O)(=O)CC1CC1 | 34 nM | > 50000 nM | – | –
COc1ccc(-c2nnc(NC(=O)C(C)(C)S(=O)(=O)CC3CCC3)[nH]2)c(F)c1 | 7.6 nM | > 20000 nM | – | –
CC(C)(C(=O)Nc1nnc(-c2ccc(O)cc2F)[nH]1)S(=O)(=O)CC1CCC1 | 9.4 nM | 35000 nM | – | –
CC(C)(O)c1cc(NC(=O)C(C)(C)S(=O)(=O)C2CCOCC2)on1 | 88 nM | > 50000 nM | – | –
CC(C)(O)c1cc(NC(=O)C(C)(C)S(=O)(=O)CCCC(F)(F)F)on1 | 49 nM | > 20000 nM | – | –
CC(C)CCS(=O)(=O)C(C)(C)C(=O)Nc1nnc(C(C)(C)CO)s1 | 18 nM | > 20000 nM | – | –
CO[C@H]1CC[C@@H](S(=O)(=O)C(C)(C)C(=O)Nc2cc(C(C)(C)CO)no2)CC1 | 57 nM | > 50000 nM | – | –
CC(C)(CO)c1cc(NC(=O)C(C)(C)S(=O)(=O)CC[C@H]2CCOC2)on1 | 6.2 nM | > 20000 nM | – | –
CC(C)(CO)c1cc(NC(=O)C(C)(C)S(=O)(=O)CC[C@@H]2CCOC2)on1 | 14 nM | > 50000 nM | – | –
COCC(C)(C)c1cc(NC(=O)C(C)(C)S(=O)(=O)C2CCN(S(C)(=O)=O)CC2)no1 | 6.2 nM | > 50000 nM | – | –
CC(C)(CO)c1cc(NC(=O)C(C)(C)S(=O)(=O)C2CCN(S(C)(=O)=O)CC2)no1 | 91 nM | > 50000 nM | – | –
CC(C)(CO)c1nnc(NC(=O)C(C)(C)S(=O)(=O)C[C@H]2CCCCO2)s1 | 28 nM | > 50000 nM | – | –
